According to patent US20240041050A1, “CELL PENETRATING PEPTIDE MEDIATED RNA TRANSDUCTION WITHIN INSECT CELLS” (PIONEER HI-BRED INTERNATIONAL, INC., priority 2020, published 2024):
Ends that are not written are not given here.

Columns and labels:
[1] = test system: western corn rootworm (WCR) larvae; assay: Oral toxicity screening of CPPs in artificial diet; assay type: in vivo; conditions: first instar WCR larvae; for Affected (%): mortality and stunting
Procedure: Briefly, CPPs were incorporated into standard WCR artificial diet in 96-well microtiter plate format. A 25 μL aliquot of dosing solution was combined with 75 μL molten low-melt WCR diet and shaken on an orbital shaker to mix. Once diet solidified, preconditioned first instar WCR (freshly-hatched insects placed on neutral diet for 24 hours prior to transfer to test diet) were added to the diet plates at a rate of 1 insect·well^−1. Plates were placed inside an incubator (Percival Scientific, Inc., Perry, IA) set to 27° C., 65% RH, and a 24-hour dark cycle. The assay was scored for mortality and stunting affects after 7 and 12 days, without diet refresh, on a 0-3 scale, where 3=mortality, 2=severe stunting, 1=stunting, 0=no affect when compared with untreated larvae. The assay was repeated three times and end-results were tabulated using all three replicates and converted to percentages (Table 5).

[2] = test system: Sf9 cells; assay: CPP-mediated delivery of mCherry mRNA cargo into insect cells; assay type: cell-based, Spodoptera frugiperda; conditions: complex of 75 μM unlabeled CPP and 10 μg mCherry mRNA, overnight
Excerpt: (§1) Sample preparation and analysis methods were based on those previously reported (Jafari et al. (201 4) “Serum stability and physicochemical characterization of a novel amphipathic peptide C6M 1 for siRNA delivery”, PLoS One, 9(5), e97797; and Gillet et al. (2017) “Investigating Engineered Ribonucleoprotein Particles to Improve Oral RNAi Delivery in Crop Insect Pests”, Frontiers in Physiology, 8(256), doi: 10.3389/fphys.2017.00256). Reagents are described in Examples 1 and 2. Nanocomplex samples were prepared in one of several ways, depending on type of CPP, RNA, or assay. […] Reaction volumes added to cells were 6.38 μL CPP and 6.38 μL mRNA. Final optimal CPP concentration was assessed by amount of fluorescent signal apparent within cells. For insect cell-based assays with CPP-YFP·Cy3-dsRNA or CPP·dsRNA, first a complex formation solution was prepared in molecular biology-grade water containing 90 mg·mL^−1 maltose, 9 mg·mL^−1 mannitol, 392. 16 mM CaCI2, pH 7.0, and vacuum-filtered using Corning™ Disposable Vacuum Filter and Storage System containing a cellulose nitrate filter. Then, increasing amounts of CPP-YFP were added to Cy3-dsRNA, from a molar ratio (CPP-YFP:Cy3-dsRNA) of 1:4 through 8:1 and incubated protected from light at 25° C. for 90 minutes prior to assessment via gel shift and DLS. Reaction volumes added per cell well were comprised of 17 μL reaction solution, 1 μL CPP, 1 μL dsRNA, and 1 μL molecular biology grade water; reaction sizes for larger total volumes were increased in increments of 20 μL and component ratio was held constant to maintain an ionic strength of […]. Final optimal molar ratio selected for cell experiments were determined by increase of the apparent size of the Cy3-dsRNA band on a native agarose gel (FIG. 2A and FIG. 2B), and/or appearance and increase in size of the complex peak detected by a Zetasizer Ultra (Malvern Panalytical, Malvern, United Kingdom) DLS instrument (FIG. 2C). […] Final optimal BAPC1 concentration was assessed by amount of fluorescent signal apparent within cells. […]

[3] = test system: DvWL2 cells; assay: as above; assay type: cell-based, Diabrotica virgifera virgifera; conditions: complex of 75 μM unlabeled CPP and 10 μg mCherry mRNA, overnight
Excerpt: as §1

[4] = test system: DU182A cells; assay: as above; assay type: cell-based, Diabrotica undecimpunctata; conditions: complex of 75 μM unlabeled CPP and 10 μg mCherry mRNA, overnight
Excerpt: as §1

Row | Compound | Affected (%) ([1]; 0.195 ppm in artificial diet) | Affected (%) ([1]; 0.391 ppm in artificial diet) | Affected (%) ([1]; 0.781 ppm in artificial diet) | Affected (%) ([1]; 1.56 ppm in artificial diet) | Affected (%) ([1]; 3.13 ppm in artificial diet) | Affected (%) ([1]; 6.25 ppm in artificial diet) | Affected (%) ([1]; 12.5 ppm in artificial diet) | Affected (%) ([1]; 25.0 ppm in artificial diet) | Affected (%) ([1]; 50.0 ppm in artificial diet) | Affected (%) ([1]; 100 ppm in artificial diet) | Affected (%) ([1]; 200 ppm in artificial diet) | fluorescent protein translated from delivered mCherry mRNA (fluorescent signal inside cells) [2] | fluorescent protein translated from delivered mCherry mRNA (fluorescent signal inside cells) [3] | fluorescent protein translated from delivered mCherry mRNA (fluorescent signal inside cells) [4] | Mortality (%) ([1]; 0.195 ppm in artificial diet) | Mortality (%) ([1]; 0.391 ppm in artificial diet) | Mortality (%) ([1]; 0.781 ppm in artificial diet) | Mortality (%) ([1]; 1.56 ppm in artificial diet) | Mortality (%) ([1]; 3.13 ppm in artificial diet) | Mortality (%) ([1]; 6.25 ppm in artificial diet) | other results
1 | CSCC[C@H](NC(=O)[C@@H](NC(=O)[C@H](CO)NC(=O)CNC(=O)[C@H](C)NC(=O)[C@H](C)NC(=O)CNC(=O)[C@H](CC(C)C)NC(=O)[C@H](Cc1ccccc1)NC(=O)CNC(=O)[C@H](CC(C)C)NC(=O)[C@H](Cc1ccccc1)NC(=O)[C@H](CC(C)C)NC(=O)[C@H](C)NC(=O)CN)[C@@H](C)O)C(=O)NCC(=O)N[C@@H](C)C(=O)N[C@@H](Cc1c[nH]c2ccccc12)C(=O)N[C@@H](CO)C(=O)N[C@@H](CCC(N)=O)C(=O)N1CCC[C@H]1C(=O)N[C@@H](CCCCN)C(=O)N[C@@H](CO)C(=O)N[C@@H](CCCCN)C(=O)N[C@@H](CCCNC(=N)N)C(=O)N[C@@H](CCCCN)C(=O)N[C@H](C(=O)O)C(C)C [MPG] | 0 | 0 | 0 | 0 | 0 | 0 | 0 | 0 | 0 | 0 | 0 | Translation of mRNA into a functional fluorescent protein occurred | Translation of mRNA into a functional fluorescent protein occurred | Translation of mRNA into a functional fluorescent protein occurred | – | – | – | – | – | – | –
2 | KQINNWFINQRKRHWK [Knotted-1, KQINNWFINQRKRHWK] | 0 | 0 | 0 | 0 | 0 | 0 | 0 | 0 | 0 | 0 | 0 | Translation of mRNA into a functional fluorescent protein occurred | Translation of mRNA into a functional fluorescent protein occurred | Translation of mRNA into a functional fluorescent protein occurred | 0 | 0 | 0 | 0 | 0 | 0 | Mortality (%) ([1]; 12.5 ppm in artificial diet): 0%; Mortality (%) ([1]; 25.0 ppm in artificial diet): 0%; Mortality (%) ([1]; 50.0 ppm in artificial diet): 0%; Mortality (%) ([1]; 100 ppm in artificial diet): 0%; Mortality (%) ([1]; 200 ppm in artificial diet): 0%
3 | VRLPPPVRLPPPLVRPPPL [VRLPPPVRLPPPLVRPPPL] | 0 | 0 | 0 | 0 | 0 | 0 | 0 | 0 | 0 | 0 | 0 | – | – | – | 0 | 0 | 0 | 0 | 0 | 0 | Mortality (%) ([1]; 12.5 ppm in artificial diet): 0%; Mortality (%) ([1]; 25.0 ppm in artificial diet): 0%; Mortality (%) ([1]; 50.0 ppm in artificial diet): 0%; Mortality (%) ([1]; 100 ppm in artificial diet): 0%; Mortality (%) ([1]; 200 ppm in artificial diet): 0%
